Assay results: the NIST ThermoML archive (doi:10.1021/je060200b)
± gives the expanded uncertainty stated by the source.

Tests used:
[1] = molar heat capacity at constant pressure; conditions: 101 kPa, Liquid
[2] = 101 kPa, Liquid; for speed of sound: Pulse-echo method; for mass density: Vibrating tube method
[3] = xn = mol fraction of the nth substance listed; conditions: 101 kPa, Liquid, x2 = 0; for mass density: Vibrating tube method; for speed of sound: Pulse-echo method
[4] = molar heat capacity at constant pressure; xn = mol fraction of the nth substance listed; conditions: 101 kPa, Liquid, x2 = 0

Compound: BrCCCCCBr [1,5-dibromopentane]
- molar heat capacity at constant pressure ([1]; 293.15 K): 219.76 ± 1.7 J/K/mol
- molar heat capacity at constant pressure ([1]; 294.15 K): 219.98 ± 1.7 J/K/mol
- molar heat capacity at constant pressure ([1]; 295.15 K): 220.19 ± 1.7 J/K/mol
- molar heat capacity at constant pressure ([1]; 296.15 K): 220.41 ± 1.7 J/K/mol
- molar heat capacity at constant pressure ([1]; 297.15 K): 220.66 ± 1.7 J/K/mol
- molar heat capacity at constant pressure ([1]; 298.15 K): 220.84 ± 1.7 J/K/mol
- molar heat capacity at constant pressure ([1]; 299.15 K): 221.1 ± 1.7 J/K/mol
- molar heat capacity at constant pressure ([1]; 300.15 K): 221.28 ± 1.7 J/K/mol
- molar heat capacity at constant pressure ([1]; 301.15 K): 221.49 ± 1.7 J/K/mol
- molar heat capacity at constant pressure ([1]; 302.15 K): 221.73 ± 1.7 J/K/mol
- molar heat capacity at constant pressure ([1]; 303.15 K): 221.95 ± 1.7 J/K/mol
- molar heat capacity at constant pressure ([1]; 304.15 K): 222.17 ± 1.7 J/K/mol
- molar heat capacity at constant pressure ([1]; 305.15 K): 222.41 ± 1.7 J/K/mol
- molar heat capacity at constant pressure ([1]; 306.15 K): 222.63 ± 1.7 J/K/mol
- molar heat capacity at constant pressure ([1]; 307.15 K): 222.85 ± 1.7 J/K/mol
- molar heat capacity at constant pressure ([1]; 308.15 K): 223.09 ± 1.7 J/K/mol
- molar heat capacity at constant pressure ([1]; 309.15 K): 223.31 ± 1.7 J/K/mol
- molar heat capacity at constant pressure ([1]; 310.15 K): 223.56 ± 1.7 J/K/mol
- molar heat capacity at constant pressure ([1]; 311.15 K): 223.78 ± 1.7 J/K/mol
- molar heat capacity at constant pressure ([1]; 312.15 K): 224.03 ± 1.7 J/K/mol
- molar heat capacity at constant pressure ([1]; 313.15 K): 224.26 ± 1.7 J/K/mol
- speed of sound ([2]; 292.38 K): 1149.5 ± 1.2 m/s
- mass density ([2]; 292.52 K): 1699.54 ± 0.91 kg/m3
- mass density ([2]; 298.05 K): 1691.87 ± 0.91 kg/m3
- speed of sound ([2]; 298.37 K): 1133 ± 1.2 m/s
- mass density ([2]; 303.06 K): 1684.89 ± 0.9 kg/m3
- speed of sound ([2]; 303.39 K): 1119.3 ± 1.2 m/s
- mass density ([2]; 308.08 K): 1678.03 ± 0.9 kg/m3
- speed of sound ([2]; 308.38 K): 1105.8 ± 1.2 m/s
- speed of sound ([2]; 314.36 K): 1089.7 ± 1.2 m/s
- mass density ([2]; 314.66 K): 1668.75 ± 0.89 kg/m3

Compound: CCCCCCC [heptane]
- molar heat capacity at constant pressure ([1]; 293.15 K): 222.87 ± 1.7 J/K/mol
- molar heat capacity at constant pressure ([1]; 294.15 K): 223.23 ± 1.7 J/K/mol
- molar heat capacity at constant pressure ([1]; 295.15 K): 223.6 ± 1.7 J/K/mol
- molar heat capacity at constant pressure ([1]; 296.15 K): 223.97 ± 1.7 J/K/mol
- molar heat capacity at constant pressure ([1]; 297.15 K): 224.35 ± 1.7 J/K/mol
- molar heat capacity at constant pressure ([1]; 298.15 K): 224.72 ± 1.7 J/K/mol
- molar heat capacity at constant pressure ([1]; 299.15 K): 225.1 ± 1.7 J/K/mol
- molar heat capacity at constant pressure ([1]; 300.15 K): 225.47 ± 1.8 J/K/mol
- molar heat capacity at constant pressure ([1]; 301.15 K): 225.87 ± 1.8 J/K/mol
- molar heat capacity at constant pressure ([1]; 302.15 K): 226.22 ± 1.8 J/K/mol
- molar heat capacity at constant pressure ([1]; 303.15 K): 226.61 ± 1.8 J/K/mol
- molar heat capacity at constant pressure ([1]; 304.15 K): 227 ± 1.8 J/K/mol
- molar heat capacity at constant pressure ([1]; 305.15 K): 227.4 ± 1.8 J/K/mol
- molar heat capacity at constant pressure ([1]; 306.15 K): 227.75 ± 1.8 J/K/mol
- molar heat capacity at constant pressure ([1]; 307.15 K): 228.14 ± 1.8 J/K/mol
- molar heat capacity at constant pressure ([1]; 308.15 K): 228.54 ± 1.8 J/K/mol
- molar heat capacity at constant pressure ([1]; 309.15 K): 228.95 ± 1.8 J/K/mol
- molar heat capacity at constant pressure ([1]; 310.15 K): 229.3 ± 1.8 J/K/mol
- molar heat capacity at constant pressure ([1]; 311.15 K): 229.71 ± 1.8 J/K/mol
- molar heat capacity at constant pressure ([1]; 312.15 K): 230.11 ± 1.8 J/K/mol
- molar heat capacity at constant pressure ([1]; 313.15 K): 230.51 ± 1.8 J/K/mol
- mass density ([2]; 292.7 K): 684.18 ± 0.19 kg/m3
- speed of sound ([2]; 292.84 K): 1153.7 ± 0.77 m/s
- mass density ([2]; 297.98 K): 679.88 ± 0.19 kg/m3
- speed of sound ([2]; 298.84 K): 1127.7 ± 0.76 m/s
- mass density ([2]; 302.94 K): 675.72 ± 0.19 kg/m3
- speed of sound ([2]; 303.8 K): 1106.4 ± 0.75 m/s
- mass density ([2]; 308.06 K): 671.47 ± 0.19 kg/m3
- speed of sound ([2]; 308.78 K): 1085.1 ± 0.74 m/s
- mass density ([2]; 314.1 K): 666.39 ± 0.19 kg/m3
- speed of sound ([2]; 314.87 K): 1059.1 ± 0.74 m/s

Compound: CCCCCCC [heptane] + BrCCCCCBr
- mass density ([3]; 292.7 K): 684.18 ± 0.19 kg/m3
- speed of sound ([3]; 292.84 K): 1153.7 ± 0.77 m/s
- mass density ([3]; 297.98 K): 679.88 ± 0.19 kg/m3
- speed of sound ([3]; 298.84 K): 1127.7 ± 0.76 m/s
- mass density ([3]; 302.94 K): 675.72 ± 0.19 kg/m3
- speed of sound ([3]; 303.8 K): 1106.4 ± 0.75 m/s
- mass density ([3]; 308.06 K): 671.47 ± 0.19 kg/m3
- speed of sound ([3]; 308.78 K): 1085.1 ± 0.74 m/s
- mass density ([3]; 314.1 K): 666.39 ± 0.19 kg/m3
- speed of sound ([3]; 314.87 K): 1059.1 ± 0.74 m/s
- molar heat capacity at constant pressure ([4]; 293.15 K): 222.87 ± 1.7 J/K/mol
- molar heat capacity at constant pressure ([4]; 294.15 K): 223.23 ± 1.7 J/K/mol
- molar heat capacity at constant pressure ([4]; 295.15 K): 223.6 ± 1.7 J/K/mol
- molar heat capacity at constant pressure ([4]; 296.15 K): 223.97 ± 1.7 J/K/mol
- molar heat capacity at constant pressure ([4]; 297.15 K): 224.35 ± 1.7 J/K/mol
- molar heat capacity at constant pressure ([4]; 298.15 K): 224.72 ± 1.7 J/K/mol
- molar heat capacity at constant pressure ([4]; 299.15 K): 225.1 ± 1.7 J/K/mol
- molar heat capacity at constant pressure ([4]; 300.15 K): 225.47 ± 1.8 J/K/mol
- molar heat capacity at constant pressure ([4]; 301.15 K): 225.87 ± 1.8 J/K/mol
- molar heat capacity at constant pressure ([4]; 302.15 K): 226.22 ± 1.8 J/K/mol
- molar heat capacity at constant pressure ([4]; 303.15 K): 226.61 ± 1.8 J/K/mol
- molar heat capacity at constant pressure ([4]; 304.15 K): 227 ± 1.8 J/K/mol
- molar heat capacity at constant pressure ([4]; 305.15 K): 227.4 ± 1.8 J/K/mol
- molar heat capacity at constant pressure ([4]; 306.15 K): 227.75 ± 1.8 J/K/mol
- molar heat capacity at constant pressure ([4]; 307.15 K): 228.14 ± 1.8 J/K/mol
- molar heat capacity at constant pressure ([4]; 308.15 K): 228.54 ± 1.8 J/K/mol
- molar heat capacity at constant pressure ([4]; 309.15 K): 228.95 ± 1.8 J/K/mol
- molar heat capacity at constant pressure ([4]; 310.15 K): 229.3 ± 1.8 J/K/mol
- molar heat capacity at constant pressure ([4]; 311.15 K): 229.71 ± 1.8 J/K/mol
- molar heat capacity at constant pressure ([4]; 312.15 K): 230.11 ± 1.8 J/K/mol
- molar heat capacity at constant pressure ([4]; 313.15 K): 230.51 ± 1.8 J/K/mol
